Here are results for 1 molecule from publication PMC10685318, “Trans-cyclosulfamidate mannose-configured cyclitol allows isoform-dependent inhibition of GH47 α-D-mannosidases through a bump–hole strategy” (Chemical Science, 2023).

The IC50 is the point on the concentration scale where inhibition reaches its midpoint. Low values mean inhibition by little substance, high ones a need for much substance.

This assay deals with T1, MAN2A2 (Homo sapiens, UniProt P49641).
T1 construct: expressed in transfected cells
T1 sequence (P49641 1-1150): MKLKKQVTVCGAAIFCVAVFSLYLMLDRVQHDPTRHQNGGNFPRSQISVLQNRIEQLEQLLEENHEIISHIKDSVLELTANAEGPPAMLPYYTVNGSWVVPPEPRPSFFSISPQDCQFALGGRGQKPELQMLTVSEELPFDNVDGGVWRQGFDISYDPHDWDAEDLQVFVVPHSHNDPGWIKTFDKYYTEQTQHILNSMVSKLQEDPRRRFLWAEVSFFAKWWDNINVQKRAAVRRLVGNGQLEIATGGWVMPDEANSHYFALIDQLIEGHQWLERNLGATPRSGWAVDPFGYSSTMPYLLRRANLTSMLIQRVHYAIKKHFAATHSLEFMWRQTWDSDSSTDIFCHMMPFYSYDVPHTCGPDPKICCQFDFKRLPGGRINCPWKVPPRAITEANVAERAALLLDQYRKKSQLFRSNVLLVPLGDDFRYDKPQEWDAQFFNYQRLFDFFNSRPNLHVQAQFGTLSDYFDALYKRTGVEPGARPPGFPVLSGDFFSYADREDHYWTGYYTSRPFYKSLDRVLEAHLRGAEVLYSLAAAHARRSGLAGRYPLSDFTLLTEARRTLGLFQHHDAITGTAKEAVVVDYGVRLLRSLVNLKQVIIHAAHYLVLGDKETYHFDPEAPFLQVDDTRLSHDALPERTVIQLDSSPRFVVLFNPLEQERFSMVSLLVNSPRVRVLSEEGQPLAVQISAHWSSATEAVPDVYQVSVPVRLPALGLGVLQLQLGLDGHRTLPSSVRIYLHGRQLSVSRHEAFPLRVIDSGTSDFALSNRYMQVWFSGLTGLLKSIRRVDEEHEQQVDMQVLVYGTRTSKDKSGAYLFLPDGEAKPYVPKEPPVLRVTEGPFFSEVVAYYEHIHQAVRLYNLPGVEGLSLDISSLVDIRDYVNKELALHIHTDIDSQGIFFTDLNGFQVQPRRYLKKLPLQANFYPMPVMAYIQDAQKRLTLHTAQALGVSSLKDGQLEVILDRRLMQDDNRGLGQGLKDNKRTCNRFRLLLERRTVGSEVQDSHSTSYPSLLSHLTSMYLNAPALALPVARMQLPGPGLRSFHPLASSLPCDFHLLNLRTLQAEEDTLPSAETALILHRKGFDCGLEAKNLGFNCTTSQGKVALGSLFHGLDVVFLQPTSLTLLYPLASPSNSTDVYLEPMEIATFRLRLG
Description: 4-MU-α-man activity assay in overexpressed cell lysates. In kind it is biochemical.

As for `O=S1(=O)N[C@@H]2[C@@H](O)[C@@H](O)[C@H](O)[C@@H](CO)[C@H]2O1` [compound 6, 1,6-trans-manno-cyclosulfamidate], the “activity when the buffer was enriched with CoCl2” value (CoCl2) is listed as “no activity”. For the same molecule, the IC50 (Zn2+) is > 1000 µM.
